# Patent US20030166530A1, “Conjugate heat shock protein-binding peptides” (priority 1997, published 2003)
# Ends that are not written are not given here.
# Tests used:
# [1] = 17- versus 19-substituted herbimycin derivative; cited from earlier work
# [2] = biological target: T1, gp96 in the presence of herbimycin A (Mus musculus, UniProt P08113); assay: Phage display affinity panning on gp96 in the presence of herbimycin A; type: binding; conditions: 20 mM HEPES pH 7.5, 100 mM KCl, 25 mM CaCl2, 5 mM MgAcetate, TWEEN-20; herbimycin A present
# T1 construct: mouse cDNA encoding mature gp96 (i.e., wherein the endoplasmic reticulum signal peptide has been removed); made in house; host or cells: Escherichia coli BL21 (pET 11a)
# T1 sequence (P08113 22-802): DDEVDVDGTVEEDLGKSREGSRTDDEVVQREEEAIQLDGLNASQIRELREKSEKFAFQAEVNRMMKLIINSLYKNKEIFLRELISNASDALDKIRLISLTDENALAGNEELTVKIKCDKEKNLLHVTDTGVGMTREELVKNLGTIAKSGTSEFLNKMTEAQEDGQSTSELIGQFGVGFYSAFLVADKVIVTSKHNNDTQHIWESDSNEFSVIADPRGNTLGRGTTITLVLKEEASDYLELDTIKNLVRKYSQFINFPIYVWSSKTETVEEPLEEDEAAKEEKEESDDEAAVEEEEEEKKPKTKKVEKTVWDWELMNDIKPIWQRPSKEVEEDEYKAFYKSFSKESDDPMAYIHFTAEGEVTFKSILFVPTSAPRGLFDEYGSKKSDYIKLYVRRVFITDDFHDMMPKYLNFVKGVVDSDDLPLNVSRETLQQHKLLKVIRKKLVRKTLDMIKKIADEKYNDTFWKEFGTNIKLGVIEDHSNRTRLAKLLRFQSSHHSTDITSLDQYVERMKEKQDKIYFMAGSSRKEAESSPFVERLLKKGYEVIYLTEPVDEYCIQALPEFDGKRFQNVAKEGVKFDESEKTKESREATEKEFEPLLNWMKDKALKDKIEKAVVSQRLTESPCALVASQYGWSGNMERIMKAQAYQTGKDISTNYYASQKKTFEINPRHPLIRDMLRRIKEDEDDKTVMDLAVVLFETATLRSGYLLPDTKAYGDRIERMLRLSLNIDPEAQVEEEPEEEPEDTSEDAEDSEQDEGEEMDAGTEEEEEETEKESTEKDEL
# Description: Preparation of a gp96 expression vector. The mouse cDNA encoding mature gp96 (i.e., wherein the endoplasmic reticulum signal peptide has been removed) was incorporated into the pET 11a expression vector (Novagen) as follows. Gp96 cDNA insert was prepared by polymerase chain reaction (PCR) of a pRc/CMV clone containing the cDNA using the following oligonucleotide primers: […]
# Expression of gp96. pET11 gp96 was transformed into BL21 Escherichia coli cells, and plated on LB plates containing ampicillin (50μg/ml). One of the resulting colonies was used to inoculate a 20 ml overnight culture of 2×TY medium containing ampicillin (150 μg/ml). The following day, the resulting culture was spun down and the harvested bacteria were resuspended in 1 ml of fresh medium. Two one liter cultures were then each inoculated with 0.5 ml of the harvested cells and allowed to grow at 37° C. until the optical density, measured at 600 nm, was 0.5. Then, IPTG was added to a concentration of 1 mM and the cells were cultured for another 3 hours before being harvested by centrifugation. The resulting cell pellet was resuspended in 20 ml of 50 mM HEPES pH 7.5, 50 mM KCl, 5 mM MgAcetate, 20% sucrose and 1 mM PMSF. Cell extracts were prepared by pressure shearing in a French Press. The lysates were then spun at 100,000×g for 1.5 hours and the supernatant, which constituted crude gp96 extract, was collected. […]
# [3] = tested on: OVA-primed EL-4 target cells; assay: 51Cr release assay with effector cells from immunized mice; type: in vivo, C57BL/6 mice; conditions: mice immunized once or twice
# Description: Preparation of hsp70 and/or peptide for use in immunization. Approximately 15 μg hsp70 and 12 μg OVA-BiP were mixed, on ice, to a final volume of 10 μL in Buffer Y (to produce a final concentration of 21.5 μM hsp70, 0.5 mM OVA-BiP, 20 mM HEPES pH 7.0, 150 mM KCl, 10 mM (NH4)2SO4, 2 mM MgCl2 and 2 mM MgADP, pH 7.0). The mixture was incubated for 30 minutes at 37° C. and was used for in vivo immunizations. Similar incubations were carried out with (i) 5 μl TiterMax adjuvant (Vaxcell, Norcross, Ga.) and 12 μg OVA-BiP (ii) 5 μl TiterMax and 5 μg OVA peptide or (iii) 12 μg OVA-BiP alone.
# Preparation of cells for chromium release assay. […]
# Chromium release assay. […] Supernatants were harvested and radioactivitiy released by cytotoxic activity was measured in a gamma counter. The percent specific lysis was calculated as 100×[(cpm release by CTL-cpm spontaneously released)/(cpm maximal release-cpm spontaneously released)]. Maximal release was determined by adding 1% NP-40 to lyse all cells. Spontaneous release of all target in the absence of effector cells (measured in a culture of target cells (in the absence of effector cells) maintained in parallel for the duration of the assay) was less than 20% of the maximal release.
# EG7 cells = assay: EG7 tumor cell challenge after immunization; type: in vivo, C57BL/6 mice; conditions: for tumor-free animals: eight mice per group
# Description: C57BL/6 mice, 8-10 weeks old, were immunized intradermally with one of the following (eight mice in each group): (a)5 μl TiterMax and 5 μg OVA peptide; (b) 15 μg hsp70 and 5 μg OVA peptide; (c) 5 μl TiterMax and […] (OVA-BiP); (d) 15 μg hsp70 and 12 μg OVA-BiP; (e) control (four animals only in this group); (f) 5 μg OVA peptide; or (g) 12 μg OVA-BiP. The mice then were injected with 4×10^6 EG7 cells. Tumor size was evaluated over time by measuring two diameters, the greatest diameter and the diameter perpendicular to the greatest diameter, and then calculating the average diameter. The results are shown in FIG. 8A-G (corresponding to groups a-g, as set forth above).
# [4] = peptide alone (without TiterMax or hsp70)
substance,measurement,setting,value
17-allylamino herbimycin,relative activity,[1],more active than 19-allylamino herbimycin
Phe-His-Trp-Trp-Trp (FHWWW; printed: Phe-His-Trp-Trp-Trp) [SEQ ID NO:320],binding of phage-expressed peptides to gp96,[2],appeared to be favored
SIINFEKLGSGHWDFAWPW [OVA-BiP],OVA-specific cytotoxic immune response (killing of OVA-primed EL-4 target cells),[3],significant anti-OVA immune response
same,tumor diameter and detectable tumor formation,EG7 cells; peptide administered with TiterMax adjuvant,superior to OVA peptide (FIG. 8A) in reducing tumor diameter and in preventing detectable tumor formation altogether
same,average tumor diameters,"EG7 cells; peptide alone (without TiterMax or hsp70), compared with OVA-peptide alone",average tumor diameters were smaller
same,tumor-free animals,EG7 cells; [4],2/8
"Ser Ile Ile Asn Phe Glu Lys Leu (SIINFEKL; printed: Ser Ile Ile Asn Phe Glu Lys Leu) [OVA-peptide, reference compound]",tumor-free animals,EG7 cells; [4],no animals were tumor-free
